# How the values were obtained:
# [1] = test system: lysozyme; assay: Maillard reaction inhibiting activity test (lysozyme and fructose, dimer formation by SDS-PAGE/densitometry); format: biochemical; conditions: lysozyme 10 mg/ml, fructose 200mM, 0.5M sodium phosphate buffer pH7.4, 37°C, 1 week, inhibition of lysozyme dimer formation; for Inhibiting Activity (%) Concentration (0.2mM): test compound 0.2mM; for Inhibiting Activity (%) Concentration (2mM): test compound 2mM
# Method: The test compound (0.2mM or 2mM), lysozyme (lOmg/ml) and fructose (200mM) were dissolved in 0.5M sodium phosphate buffer (pH7.4), and the solution was incubated at 37°C for l week. After incubation, the sample was separated by SDS-PAGE and stained with Coomassie Brilliant Blue R-250. The percentage of formed dimer to total proteins was measured by densitometry. Inhibiting activities of the test compounds were evaluated from comparing the percentage of formed dimer in the presence of the test compound with that in the absence of the test compound.
# [2] = test system: Male SD rats; assay: Acute toxicity test; format: in vivo; conditions: for hematological examinations / death: 2000 mg/kg; for death: single administration 2000 mg/kg, until 7 days after administration
# Method: Male SD rats, 6 weeks of age and weighing between 140g and 165 g, were conditioned to an overnight fast. α -Amino-2 hydroxyphenylacetic acid.hydrochloride suspended in 0.5% of CMC were given to the rats at a dosage of 2000 mg/kg. Control group rats received 0.5% of CMC alone.
# Six hours after administration, all rats were allowed free access to food and water. Seven days after administration, blood samples were collected and tested with hematological examinations. Plasma samples were tested with blood biochemical examinations.
# [3] = test system: Male SD rats; assay: Toxicity test by long-term administration; format: in vivo
# Method: Male SD rats, 6 weeks of age, received STZ (50mg/kg) by single intravenous injection into the tail and were made diabetic. One week after STZ injection, α -amino-2-hydroxyphenylacetic acid-hydrochloride suspended in 0.5% of CMC was given to the diabetic rats by daily oral administration at a dosage of lOOmg/kg. Rats in the control group received O.5% of CMC alone. Compared with the control group, significant reduction in weight and significant increase in number of dead animals were not observed until ten weeks after administration.
# [4] = test system: AGE content in plasma proteins; assay: Inhibition assay for AGE formation in vivo (AGE content in plasma proteins by ELISA using anti-AGE antibody); set-up: species or system male SD rats; conditions: STZ-induced diabetic rats, 4 weeks, relative to untreated rats (as 100% control)
# Method: Diabetes was induced in male SD rats, 6 weeks of age, by intravenous single injection of streptozotocin (STZ) (50mg/kg) into tail. One week after diabetes induction, α -amino-2-hydroxyphenylacetic acid.hydrochloride or aminoguanidine was given to the diabetic rats by daily oral administration at dosage of 50mg/kg or lOOmg/kg. After 4 weeks of administration, blood samples were collected and AGE content in plasma proteins was measured by ELISA using anti-AGE antibody. AGE content in drug-treated rats were estimated compared with the average content of untreated rats (as 100% control).
# [5] = STZ diabetic rats, 100mg/kg daily oral, until ten weeks, versus control group
Compound,Inhibiting Activity (%) Concentration (0.2mM) [1] [%],Inhibiting Activity (%) Concentration (2mM) [1] [%],further results
"NC(C(=O)O)c1ccccc1O (single isomer, unassigned) [Example 12, α -Amino-2-hydroxyphenylacetic acid (optical isomer)]",22.4,83.5,
"NC(C(=O)O)c1ccccc1O (single isomer, unassigned) [Example 13, α -Amino-2-hydroxyphenylacetic acid (optical isomer)]",24.0,86.3,
"Cl.NC(C(=O)O)c1ccccc1O (stereo not drawn) [Example 1, α -Amino-2-hydroxyphenylacetic acid.hydrochloride]",21.2,86.1,"blood biochemical examinations ([2]; 2000 mg/kg single dose, seven days after administration, versus control group): no significant difference was observed; hematological examinations ([2]; 2000 mg/kg single dose, seven days after administration, versus control group, listed as α -Amino-2 hydroxyphenylacetic acid.hydrochloride): no significant difference was observed; hematological examinations ([2]; 2000 mg/kg single dose, seven days after administration, versus control group, listed as α -amino-2-hydroxyphenylacetic acid hydrochloride): a significant effect was not observed; behavior disorder ([2]; 2000 mg/kg single dose, until 6 hours after administration): behavior disorder was not observed; death ([2]; listed as α -Amino-2 hydroxyphenylacetic acid.hydrochloride): all animals did not die; death ([2]; listed as α -amino-2-hydroxyphenylacetic acid hydrochloride): no death was observed; increase in number of dead animals [3, 5]: not observed; reduction in weight [3, 5]: not observed; toxicity and side effects ([3]; rats, 100mg/kg/day for ten consecutive weeks): significant toxicity and side effects were not observed; AGE content ([4]; 50 mg/kg daily oral): 81.6%; AGE content ([4]; 100mg/kg daily oral): 62.4%"
"COC(=O)C(N)c1ccccc1O.Cl (stereo not drawn) [Example 2, Methyl α -amino-2-hydroxyphenylacetate-hydrochloride]",30.6,67.5,
"Cl.NC(C(=O)O)c1cc(Cl)ccc1O (stereo not drawn) [Example 3, α -Amino-5-chloro-2-hydroxyphenylacetic acid-hydrochloride]",38.8,88.4,
"COc1ccc(O)c(C(N)C(=O)O)c1.Cl (stereo not drawn) [Example 4, α -Amino-2-hydroxy-5-methoxyphenylacetic acid-hydrochloride]",30.9,87.4,
"COC(=O)C(N)c1cc(O)ccc1O (stereo not drawn) [Example 5, Methyl α -amino-2,5-dihydroxyphenylacetate]",,48.3,
"CN(C)C(=O)C(N)c1ccccc1O (stereo not drawn) [Example 6, N,N-Dimethyl-α -amino-2-hydroxyphenylacetamide]",13.0,82.1,
"NC(=O)C(N)c1ccccc1O (stereo not drawn) [Example 7, α -Amino-2-hydroxyphenylacetamide]",38.7,89.3,
"Cl.NC(C(=O)NCc1ccccc1)c1ccccc1O (stereo not drawn) [Example 8, N-Benzyl-α-amino-2-hydroxyphenylacetamide-hydrochloride]",13.9,55.3,
"Cl.NC(C(=O)NCCc1ccccc1)c1ccccc1O (stereo not drawn) [Example 9, N-(2-Phenethyl)-α-amino-2-hydroxyphenylacetamidehydrochloride]",,80.0,
"NC(CC(=O)O)c1ccccc1O (centres unmarked) [Example 10, 3-Amino-3-(2-hydroxyphenyl)propionic acid]",15.0,,
"Cl.NC(=O)C(N)c1ccccc1O (stereo not drawn) [Example 14, α -Amino-2-hydroxyphenylacetamide-hydrochloride]",21.4,87.6,
"CC(C)OC(=O)CCC(N)c1ccccc1O.Cl (centres unmarked) [Example 15, Isopropyl 4-amino-4-(2-hydroxyphenyl)butyrate.hydrochloride]",2.7,,
"N=C(N)NN [aminoguanidine, reference compound]",2.9,17.2,"AGE content ([4]; aminoguanidine daily oral, dose not stated in the table (50mg/kg or 100mg/kg per method)): 88.8%"

# Reference: patent EP0839799A1, “2-HYDROXYPHENYLALKYLAMINE DERIVATIVES AND MAILLARD REACTION INHIBITORS” (KISSEI PHARMACEUTICAL CO., LTD., priority 1995, dated 1996)
